Results reported in patent US20240197888A1, “SOS1 PROTEIN DEGRADERS, PHARMACEUTICAL COMPOSITIONS THEREOF, AND THEIR THERAPEUTIC APPLICATIONS” (BioTheryX, Inc., priority 2021, published 2024).

Columns and labels:
Format in all cases: cell-based
Lovo (G13D) cells = experiment: Cell viability assay (CELLTITER-GLO), Lovo cells; settings: Homo sapiens, 72 h, Inhibition of cancerous cells, 3 days incubation, luminescence
Description: (§1) AsPC-1, H358, and SW48 cells were cultured in RPMI 1640 media supplemented with 10% fetal bovine serum, streptomycin, and penicillin. Lovo and SW480 cells were cultured in DMEM media supplemented with 10% fetal bovine serum, streptomycin, and penicillin. The cell lines were plated in their respective medium supplemented with 2.5% fetal bovine serum, streptomycin, and penicillin. All cell lines were plated in white walled 96-well plates at 2,000 cells/well or 384-well plates at 500 cells/well, except Lovo, which were plated at 4,000 or 1,000 cells/well, respectively. The cells were incubated in DMSO (control) or a compound for 3 days at 37° C. under 5% CO2. A CELLTITER-GLO® reagent ([…] was then added to each well. After a 10 min incubation with shaking, luminescence was measured using an ENVISION® multimode plate reader. IC50 values are summarized in Table 1.

SW480 (G12V) cells = experiment: Cell viability assay (CELLTITER-GLO), SW480 cells; settings: Homo sapiens, 72 h, Inhibition of cancerous cells, 3 days incubation, luminescence
Description: as §1

H358 (G12C) cells = experiment: Cell viability assay (CELLTITER-GLO), H358 cells; settings: Homo sapiens, NCI-H358, 72 h, Inhibition of cancerous cells, 3 days incubation, luminescence
Description: as §1

SW48 (wt) cells = experiment: Cell viability assay (CELLTITER-GLO), SW48 cells; settings: Homo sapiens, 72 h, Inhibition of cancerous cells, 3 days incubation, luminescence
Description: as §1

SMILES | IC50 (Lovo (G13D) cells) | IC50 (SW480 (G12V) cells) | IC50 (H358 (G12C) cells) | IC50 (SW48 (wt) cells)
CNCc1ccccc1-c1csc([C@@H](C)Nc2nc(C)nc3cc(OCCCCCCCN4CCCCC4)c(OC)cc23)c1 [Compound A2, (R)-6-methoxy-2-methyl-N-(1-(4-(2-((methylamino)methyl)phenyl)thiophen-2-yl)ethyl)-7-((7-(piperidin-1-yl)heptyl)oxy)quinazolin-4-amine] | 0.18 µM | 0.51 µM | 0.47 µM | 0.33 µM
CNCc1ccccc1-c1csc([C@H](C)Nc2nc(C)nc3cc(OCCCCCCCN4CCCCC4)c(OC)cc23)c1 [Compound A3, (S)-6-methoxy-2-methyl-N-(1-(4-(2-((methylamino)methyl)phenyl)thiophen-2-yl)ethyl)-7-((7-(piperidin-1-yl)heptyl)oxy)quinazolin-4-amine] | 0.34 µM | 0.61 µM | 0.61 µM | 0.5 µM
CNCc1ccccc1-c1csc([C@@H](C)Nc2nc(C)nc3cc(OCCOCCNC(=O)CC45CC6CC(CC(C6)C4)C5)c(OC)cc23)c1 [Compound A5, 2-((3r,5r,7r)-adamantan-1-yl)-N-(2-(2-((6-methoxy-2-methyl-4-(((R)-1-(4-(2-((methylamino)methyl)phenyl)thiophen-2-yl)ethyl)amino)quinazolin-7-yl)oxy)ethoxy)ethyl)-acetamide] | 0.45 µM | 0.55 µM | 0.91 µM | 0.9 µM
CNCc1ccccc1-c1csc([C@H](C)Nc2nc(C)nc3cc(OCCOCCNC(=O)CC45CC6CC(CC(C6)C4)C5)c(OC)cc23)c1 [Compound A6, 2-((3r,5r,7r)-adamantan-1-yl)-N-(2-(2-((6-methoxy-2-methyl-4-(((S)-1-(4-(2-((methylamino)methyl)phenyl)thiophen-2-yl)ethyl)amino)quinazolin-7-yl)oxy)ethoxy)-ethyl)acetamide] | 0.48 µM | 0.76 µM | 0.97 µM | 1 µM
COc1cc2c(N[C@H](C)c3cccc(Br)c3)nc(C)nc2cc1OCCCCCCCN1CCC(C(F)(F)F)CC1 [Compound A24, (R)—N-(1-(3-Bromophenyl)ethyl)-6-methoxy-2-methyl-7-((7-(4-(trifluoromethyl)-piperidin-1-yl)heptyl)oxy)quinazolin-4-amine] | 0.46 µM | 0.71 µM | 1.2 µM | 0.59 µM
COc1cc2c(N[C@H](C)c3cccc(Br)c3)nc(C)nc2cc1OCCCCCCCN1CCCCC1=O [Compound A25, (R)-1-(7-((4-((1-(3-Bromophenyl)ethyl)amino)-6-methoxy-2-methylquinazolin-7-yl)oxy)heptyl)piperidin-2-one] | 0.5 µM | 0.78 µM | 1.4 µM | 1.8 µM
COc1cc2c(N[C@H](C)c3cccc(Br)c3)nc(C)nc2cc1OCCCCCCCN1CCN(C(C)=O)CC1 [Compound A26, (R)-1-(4-(7-((4-((1-(3-Bromophenyl)ethyl)amino)-6-methoxy-2-methyl-quinazolin-7-yl)oxy)heptyl)piperazin-1-yl)ethan-1-one] | 0.54 µM | 0.58 µM | 1.2 µM | 0.6 µM
COc1cc2c(N[C@H](C)c3cccc(Br)c3)nc(C)nc2cc1OCCCCCCC(=O)N1CCCCC1 [Compound A36, (R)-7-((4-((1-(3-Bromophenyl)ethyl)amino)-6-methoxy-2-methylquinazolin-7-yl)oxy)-1-(piperidin-1-yl)heptan-1-one] | 0.78 µM | 0.56 µM | 1.3 µM | 1.7 µM
COc1cc2c(N[C@H](C)c3cccc(Br)c3)nc(C)nc2cc1OCCCCCCCc1ccncc1 [Compound A43, (R)—N-(1-(3-Bromophenyl)ethyl)-6-methoxy-2-methyl-7-((7-(pyridin-4-yl)heptyl)-oxy)quinazolin-4-amine] | 2.2 µM | 1.9 µM | 5.4 µM | 3.6 µM

The remaining lines, values ahead:

IC50 (Lovo (G13D) cells) | IC50 (SW480 (G12V) cells) | IC50 (H358 (G12C) cells) | IC50 (SW48 (wt) cells) | SMILES
0.55 µM | 1.2 µM | 1.9 µM | 2 µM | COc1cc2c(N[C@H](C)c3cccc(Br)c3)nc(C)nc2cc1OCCCCCCCN1CCCC(F)(F)C1 [Compound A44, (R)—N-(1-(3-Bromophenyl)ethyl)-7-((7-(3,3-difluoropiperidin-1-yl)heptyl)oxy)-6-methoxy-2-methylquinazolin-4-amine]
0.45 µM | 0.57 µM | 0.85 µM | 1 µM | CNCc1ccccc1-c1csc([C@@H](C)Nc2nc(C)nc3cc(OCCCCCOC(=O)CC45CC6CC(CC(C6)C4)C5)c(OC)cc23)c1 [Compound A45, 5-((6-Methoxy-2-methyl-4-(((R)-1-(4-(2-((methylamino)methyl)phenyl)thiophen-2-yl)ethyl)amino)quinazolin-7-yl)oxy)pentyl 2-((3r,5r,7r)-adamantan-1-yl)acetate]
1.5 µM | 1.2 µM | 1.5 µM | 1.1 µM | CNCc1ccccc1-c1csc([C@H](C)Nc2nc(C)nc3cc(OCCCCCOC(=O)CC45CC6CC(CC(C6)C4)C5)c(OC)cc23)c1 [Compound A46, 5-((6-Methoxy-2-methyl-4-(((S)-1-(4-(2-((methylamino)methyl)phenyl)thiophen-2-yl)ethyl)amino)quinazolin-7-yl)oxy)pentyl 2-((3r,5r,7r)-adamantan-1-yl)acetate]
0.43 µM | 0.58 µM | 0.76 µM | 0.64 µM | CNCc1ccccc1-c1csc([C@@H](C)Nc2nc(C)nc3cc(OCCOCCOC(=O)CC45CC6CC(CC(C6)C4)C5)c(OC)cc23)c1 [Compound A47, 2-(2-((6-Methoxy-2-methyl-4-(((R)-1-(4-(2-((methylamino)methyl)phenyl)-thiophen-2-yl)ethyl)amino)quinazolin-7-yl)oxy)ethoxy)ethyl 2-((3r,5r,7r)-adamantan-1-yl)acetate]
0.58 µM | 0.57 µM | 0.94 µM | 0.57 µM | CNCc1ccccc1-c1csc([C@H](C)Nc2nc(C)nc3cc(OCCOCCOC(=O)CC45CC6CC(CC(C6)C4)C5)c(OC)cc23)c1 [Compound A48, 2-(2-((6-Methoxy-2-methyl-4-(((S)-1-(4-(2-((methylamino)methyl)phenyl)-thiophen-2-yl)ethyl)amino)quinazolin-7-yl)oxy)ethoxy)ethyl 2-((3r,5r,7r)-adamantan-1-yl)acetate]
0.47 µM | 0.62 µM | 1.1 µM | 0.75 µM | CNCc1ccccc1-c1csc([C@@H](C)Nc2nc(C)nc3cc(OCCNC(=O)CC45CC6CC(CC(C6)C4)C5)c(OC)cc23)c1 [Compound A51, 2-((3r,5r,7r)-Adamantan-1-yl)-N-(2-((6-methoxy-2-methyl-4-(((R)-1-(4-(2-((methylamino)methyl)phenyl)thiophen-2-yl)ethyl)amino)quinazolin-7-yl)oxy)ethyl)acetamide]
0.43 µM | 0.61 µM | 1.2 µM | 0.89 µM | CNCc1ccccc1-c1csc([C@H](C)Nc2nc(C)nc3cc(OCCNC(=O)CC45CC6CC(CC(C6)C4)C5)c(OC)cc23)c1 [Compound A52, 2-((3r,5r,7r)-Adamantan-1-yl)-N-(2-((6-methoxy-2-methyl-4-(((S)-1-(4-(2-((methylamino)methyl)phenyl)thiophen-2-yl)ethyl)amino)quinazolin-7-yl)oxy)ethyl)acetamide]
